# Assay results taken from patent US4690926A, “Boxazomycin A and B, new antibiotics containing benzoxazole nucleus” (Bristol-Myers Company, priority 1986, dated 1987).
# Counter-ions that a name gives are not always drawn.
# Columns and labels:
# [1] = format: physicochemical
# P. acnes A21933 = test: Effect of pH on antimicrobial activity (MIC, Table 8); format: cell-based, Propionibacterium acnes; conditions: Cutibacterium acnes
# [2] = tested on: Bacillus subtilis PCI 219; conditions: PCI219
# B. fragilis A22534 = format: cell-based; conditions: Bacteroides fragilis, GA agar (Nissui), lactamase producer
# [3] = tested on: Mycobacterium smegmatis 607; conditions: Mycolicibacterium smegmatis
# S. pneumoniae IID = conditions: Streptococcus pneumoniae
# [4] = tested on: Pseudomonas aeruginosa D-113; conditions: D113
# S. aureus A20239 = format: cell-based; conditions: Staphylococcus aureus, Nutrient agar (Eiken), kanamycin-resistant
# C. perfringens A9635 [5] = test: microbe, parasite or virus in culture; format: cell-based; conditions: Clostridium perfringens
# [6] = tested on: Klebsiella pneumoniae D-11; conditions: D11
# Toxicity, i.m. = conditions: up to a dose of 400 mg/kg (i.m.)
# B. subtilis PCI 219 = test: Effect of pH on antimicrobial activity (MIC, Table 8); format: cell-based; conditions: Bacillus subtilis
# M. smegmatis 607 D46 = format: cell-based, Mycobacterium smegmatis; conditions: Mycolicibacterium smegmatis, Nutrient agar (Eiken), kanamycin-resistant
# [7] = tested on: Clostridium difficile A21675; format: cell-based; conditions: Clostridioides difficile, GA agar (Nissui), clindamycin-resistant
# S. necrophorus A15202 = test: Effect of pH on antimicrobial activity (MIC, Table 8); format: cell-based; conditions: Fusobacterium necrophorum
# [8] = tested on: Bacteroides fragilis A22693
# [9] = tested on: Haemophilus influenzae A9729
# [10] = tested on: Streptococcus pyogenes S-23; conditions: S23
# E. coli NIHJ = test: Effect of pH on antimicrobial activity (MIC, Table 8); format: cell-based; conditions: Escherichia coli
# K. pneumoniae D11 = test: as above; format: cell-based; conditions: Klebsiella pneumoniae
# B. fragilis A20926 = test: as above; format: cell-based; conditions: Bacteroides fragilis
# [11] = tested on: Propionibacterium acnes A21933; conditions: Cutibacterium acnes
# M. phlei D88 = conditions: Mycolicibacterium phlei
# C. perfringens A9635 [12] = test: microbe, parasite or virus in culture; format: cell-based; conditions: Clostridium perfringens; remark: listed apart in the source
# [13] = tested on: Neisseria gonorrhoeae A15112
# Acidity = format: physicochemical
# [14] = tested on: Staphylococcus aureus Smith; test: In vivo efficacy in infected mice; parameters: species or system Staphylococcus aureus; mice; conditions: for ED50: Staphylococcus aureus, im, 100×LD50 challenge in 5% hog gastric mucin, i.m. just before challenge, read-out: PD50
# [15] = tested on: Peptostreptococcus anaerobius A21905
# [16] = tested on: Clostridium perfringens A9635; test: animal or person; format: in vivo, Clostridium perfringens; mice
# S. aureus A22421 = format: cell-based; conditions: Staphylococcus aureus, Nutrient agar (Eiken), methicillin-resistant
# S. aureus BX-1633 = format: cell-based; conditions: Staphylococcus aureus, BX1633; Nutrient agar (Eiken); lactamase producer
compound,measurement,setting,value
Cc1cc(O)c(C(N)=O)c2nc(-c3nc(CO)ncc3O)oc12 [Boxazomycin A di-sodium salt],solubility in water,[1],soluble in water
Cc1cc(O)c(C(N)=O)c2nc(-c3nc(CO)ncc3O)oc12 [Boxazomycin A],MIC,"P. acnes A21933; A21933, pH 6",0.4 µg/mL
same,MIC,"P. acnes A21933; A21933, pH 7",6.3 µg/mL
same,solubility in alkaline water and dimethylformamide,[1],readily soluble
same,"solubility in ethyl acetate, chloroform, benzene and n-hexane",[1],practically insoluble
same,"solubility in water, methanol, ethanol and acetone",[1],slightly soluble
same,MIC,[2],3.1 µg/mL
same,MIC,B. fragilis A22534,3.1 µg/mL
same,MIC,[3],1.6 µg/mL
same,MIC,S. pneumoniae IID,3.1 µg/mL
same,MIC,[4],> 100 µg/mL
same,MIC,S. aureus A20239,0.4 µg/mL
same,MIC,C. perfringens A9635 [5],3.1 µg/mL
same,MIC,[6],> 100 µg/mL
same,toxic symptoms,"Toxicity, i.m.",did not show any toxic symptoms up to a dose of 400 mg/kg (i.m.)
same,MIC,"B. subtilis PCI 219; PCI219, pH 6",0.8 µg/mL
same,MIC,"B. subtilis PCI 219; PCI219, pH 7",6.3 µg/mL
same,MIC,M. smegmatis 607 D46,1.6 µg/mL
same,MIC,[7],3.1 µg/mL
same,MIC,"S. necrophorus A15202; A15202, pH 6",0.4 µg/mL
same,MIC,"S. necrophorus A15202; A15202, pH 7",3.1 µg/mL
same,MIC,[8],6.3 µg/mL
same,MIC,[9],> 100 µg/mL
same,MIC,[10],3.1 µg/mL
same,MIC,E. coli NIHJ; pH 6,> 100 µg/mL
same,MIC,E. coli NIHJ; pH 7,> 100 µg/mL
same,MIC,"K. pneumoniae D11; D11, pH 6",> 100 µg/mL
same,MIC,"K. pneumoniae D11; D11, pH 7",> 100 µg/mL
same,MIC,"B. fragilis A20926; A20926, pH 6",0.05 µg/mL
same,MIC,"B. fragilis A20926; A20926, pH 7",3.1 µg/mL
same,MIC,[11],3.1 µg/mL
same,MIC,M. phlei D88,0.8 µg/mL
same,MIC,"C. perfringens A9635 [12]; A9635, pH 6",0.2 µg/mL
same,MIC,"C. perfringens A9635 [12]; A9635, pH 7",3.1 µg/mL
same,MIC,[13],> 100 µg/mL
same,acidity,Acidity,weakly acidic
same,ED50,[14],400 mg/kg
same,in vivo efficacy relative to in vitro activity,[14]; i.m.,lower than that expected from its in vitro activity
same,protective effect,[14]; i.m.,protective effect in mice against both infections
same,MIC,[15],3.1 µg/mL
same,ED50,"[16]; Clostridium perfringens, A9635, in Mus musculus, im, read-out: PD50",220 mg/kg
same,in vivo efficacy relative to in vitro activity,"[16]; mice, i.m.",lower than that expected from its in vitro activity
same,protective effect,"[16]; mice, i.m.",protective effect in mice against both infections
same,MIC,S. aureus A22421,0.8 µg/mL
same,MIC,S. aureus BX-1633,0.8 µg/mL
Cc1ncc(O)c(-c2nc3c(C(N)=O)c(O)cc(C)c3o2)n1 [Boxazomycin B],MIC,"P. acnes A21933; A21933, pH 6",0.2 µg/mL
same,MIC,"P. acnes A21933; A21933, pH 7",6.3 µg/mL
same,solubility in alkaline water and dimethylformamide,[1],readily soluble
same,"solubility in ethyl acetate, chloroform, benzene and n-hexane",[1],practically insoluble
same,"solubility in water, methanol, ethanol and acetone",[1],slightly soluble
same,MIC,[2],1.6 µg/mL
same,MIC,B. fragilis A22534,12.5 µg/mL
same,MIC,[3],3.1 µg/mL
same,MIC,S. pneumoniae IID,25 µg/mL
same,MIC,[4],> 100 µg/mL
same,MIC,S. aureus A20239,0.8 µg/mL
same,MIC,C. perfringens A9635 [5],12.5 µg/mL
same,MIC,[6],> 100 µg/mL
same,MIC,"B. subtilis PCI 219; PCI219, pH 6",0.2 µg/mL
same,MIC,"B. subtilis PCI 219; PCI219, pH 7",1.6 µg/mL
same,MIC,M. smegmatis 607 D46,3.1 µg/mL
same,MIC,[7],6.3 µg/mL
same,MIC,"S. necrophorus A15202; A15202, pH 6",0.4 µg/mL
same,MIC,"S. necrophorus A15202; A15202, pH 7",6.3 µg/mL
same,MIC,[8],12.5 µg/mL
same,MIC,[9],> 100 µg/mL
same,MIC,[10],12.5 µg/mL
same,MIC,E. coli NIHJ; pH 6,> 100 µg/mL
same,MIC,E. coli NIHJ; pH 7,> 100 µg/mL
same,MIC,"K. pneumoniae D11; D11, pH 6",> 100 µg/mL
same,MIC,"K. pneumoniae D11; D11, pH 7",> 100 µg/mL
same,MIC,"B. fragilis A20926; A20926, pH 6",0.1 µg/mL
same,MIC,"B. fragilis A20926; A20926, pH 7",3.1 µg/mL
same,MIC,[11],6.3 µg/mL
same,MIC,M. phlei D88,1.6 µg/mL
same,MIC,"C. perfringens A9635 [12]; A9635, pH 6",0.4 µg/mL
same,MIC,"C. perfringens A9635 [12]; A9635, pH 7",6.3 µg/mL
same,MIC,[13],> 100 µg/mL
same,acidity,Acidity,weakly acidic
same,MIC,[15],6.3 µg/mL
same,MIC,S. aureus A22421,0.8 µg/mL
same,MIC,S. aureus BX-1633,0.8 µg/mL
"NC[C@H]1O[C@H](O[C@H]2[C@H](O)[C@@H](O[C@H]3O[C@H](CO)[C@@H](O)[C@H](N)[C@H]3O)[C@H](N)C[C@@H]2N)[C@H](O)[C@@H](O)[C@@H]1O [Kanamycin, kanamycin, reference compound]",MIC,[2],0.2 µg/mL
same,MIC,B. fragilis A22534,50 µg/mL
same,MIC,[3],0.8 µg/mL
same,MIC,S. pneumoniae IID,25 µg/mL
same,MIC,[4],25 µg/mL
same,MIC,S. aureus A20239,> 100 µg/mL
same,MIC,C. perfringens A9635 [5],> 50 µg/mL
same,MIC,[6],0.4 µg/mL
same,MIC,M. smegmatis 607 D46,> 100 µg/mL
same,MIC,[7],> 50 µg/mL
same,MIC,[8],50 µg/mL
same,MIC,[9],0.4 µg/mL
same,MIC,[10],25 µg/mL
same,MIC,[11],> 50 µg/mL
same,MIC,M. phlei D88,1.6 µg/mL
same,MIC,[13],0.4 µg/mL
same,ED50,[14],1.4 mg/kg
same,MIC,[15],> 50 µg/mL
same,MIC,S. aureus A22421,0.8 µg/mL
same,MIC,S. aureus BX-1633,0.8 µg/mL
